Experimental data taken from US12268689B2, “Eutectic form A of Elagolix and pyrimethamine, preparation method therefor and use thereof” (Shenzhen Rentai Pharmatech Ltd., priority 2019, dated 2025).
“Also recorded” adds a separate entry of the source.

Experiments:
Format in all cases: physicochemical
[1] = Light stability test (25° C., 4500 Lux, 30 days; HPLC purity and XRPD); settings: light conditions
Procedure: (§1) Light stability: samples of a raw drug of Elagolix sodium and an eutectic form A formed by Elagolix and pyrimethamine (prepared in Comparative example 1 and Example 1, respectively) were taken and separately placed at 25° C. under light conditions of 4500 Lux for 30 days, sampling was conducted at fixed time points on day 5, day 10 and day 30, respectively to determine the XRPD pattern of the eutectic form A, and the content of Elagolix in the raw drug of Elagolix sodium and the eutectic form A, and the determined XRPD pattern of the eutectic form A, and the determined content of Elagolix in the raw drug of Elagolix sodium and the eutectic form A were compared with those on day 0.
(§2) The specific stability test method can refer to the method in Appendix XIC of Part II of Chinese Pharmacopoeia (2015 Edition); and the purity was detected by an HPLC method, and can be determined by an external standard method with reference to the method in Appendix VD of Chinese Pharmacopoeia (2015 Edition) by using the sample on day 0 as a control.
(§3) Operating Conditions for HPLC
• Instrument: high performance liquid chromatograph (model: Agilent Technologies 1260) • Chromatographic column: shiseido CAPCELL PAK C18 column (5 μm, 250 mm×4.6 mm) Mobile Phase Composition and Gradient Elution Procedure: […]

[2] = High humidity stability test (25° C., 92.5% RH, 30 days; HPLC purity and XRPD)
Procedure: as §1, with “High humidity” for “Light”, “at 92.5% RH” for “under light conditions of 4500 Lux”, “of” for “of Elagolix in”
as §2, §3
(§4) • Instrument: high performance liquid chromatograph (model: Agilent Technologies 1260) • Chromatographic column: shiseido CAPCELL PAK C18 column (5 μm, 250 mm×4.6 mm) Mobile Phase Composition and Gradient Elution Procedure:
(§5) • Detection wavelength: 254 nm • Flow rate: 1 mL/min • Injection volume: 10 μL • Column temperature: 30° C.

[3] = High temperature stability test (60° C., 30 days; HPLC purity and XRPD)
Procedure: as §1, with “High temperature” for “Light”, “60°” for “25°”, “C.” for “C. under light conditions of 4500 Lux”, “of” for “of Elagolix in”
as §2, §3, §4, §5

COc1cccc(-c2c(C)n(Cc3c(F)cccc3C(F)(F)F)c(=O)n(C[C@H](NCCCC(=O)O)c3ccccc3)c2=O)c1F [Elagolix sodium]
not good; also recorded: unstable: Light stability (in words) [1] | High humidity stability (in words) [2] | High temperature stability (in words) [3]
